Usually IC50 stands for the point on the concentration scale where inhibition reaches its midpoint.

The test deals with T1, recombinant sEH (Homo sapiens, UniProt P34913).
T1 construct: made in house; host or cells: Sf9 insect cells
T1 sequence (P34913 1-555): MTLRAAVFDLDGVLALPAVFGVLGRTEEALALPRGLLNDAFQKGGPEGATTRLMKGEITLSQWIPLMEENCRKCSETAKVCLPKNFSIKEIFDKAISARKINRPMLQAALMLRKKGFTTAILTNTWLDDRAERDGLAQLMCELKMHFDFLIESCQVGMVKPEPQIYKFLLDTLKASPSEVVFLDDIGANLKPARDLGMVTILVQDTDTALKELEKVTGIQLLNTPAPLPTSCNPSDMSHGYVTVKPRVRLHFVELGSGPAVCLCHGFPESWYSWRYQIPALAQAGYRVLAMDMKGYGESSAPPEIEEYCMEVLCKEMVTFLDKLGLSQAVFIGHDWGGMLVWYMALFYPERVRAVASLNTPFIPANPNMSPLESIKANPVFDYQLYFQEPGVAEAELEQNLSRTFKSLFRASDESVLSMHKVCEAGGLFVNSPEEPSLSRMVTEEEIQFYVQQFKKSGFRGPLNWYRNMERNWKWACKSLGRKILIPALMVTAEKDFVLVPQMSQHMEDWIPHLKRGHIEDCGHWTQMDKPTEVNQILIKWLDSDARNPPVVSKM
The test is described as follows: biochemical screening assay for inhibition of soluble epoxide hydrolase (fluorometric, Phome substrate). In a few lines:
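Human sEH from Sf9 cells (2 nM final) was pre-incubated 15 min at 30 °C with compound (0.0001–10 μM), then reacted 60 min at 30 °C with 5 μM Phome in 25 mM Hepes/0.01% albumin. Fluorescence of released 6-methoxy-2-naphthaldehyde was read before substrate and at end; IC50 from % inhibition.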
In the case of `Cc1ncccc1O[C@H]1CO[C@H]2[C@@H]1OC[C@@H]2NC(=O)NC1(c2cccc(F)c2)CCCC1` [Example 229, 1-[1-(3-Fluoro-phenyl)-cyclopentyl]-3-[(3S,3aR,6S,6aS)-6-(2-methyl-pyridin-3-yloxy)-hexahydro-furo[3,2-b]furan-3-yl]-urea], the IC50 was 1.16 µM.
In the case of `Cc1ncccc1O[C@H]1CO[C@H]2[C@@H]1OC[C@@H]2NC(=O)NCc1ccc(OC(F)F)cc1` [Example 189, 1-(4-Difluoromethoxy-benzyl)-3-[(3S,3aR,6S,6aS)-6-(2-methyl-pyridin-3-yloxy)-hexahydro-furo[3,2-b]furan-3-yl]-urea], the IC50 stood at 0.023 µM.
Next, `CC(C)(C)S[C@H]1CO[C@H]2[C@@H]1OC[C@@H]2NC(=O)NC1CCCCC1` [Example 21, 1-((3S,3aR,6S,6aS)-6-tert-Butylsulfanyl-hexahydro-furo[3,2-b]furan-3-yl)-3-cyclohexyl-urea]: 0.001 µM.
Next, `COCC(C)NC(=O)N[C@H]1CO[C@H]2[C@@H]1OC[C@@H]2Oc1cccnc1C` (stereo partly drawn) [Example 183, 1-(2-Methoxy-1-methyl-ethyl)-3-[(3S,3aR,6S,6aS)-6-(2-methyl-pyridin-3-yloxy)-hexahydro-furo[3,2-b]furan-3-yl]-urea]: 0.846 µM; `Cc1ncccc1O[C@H]1CO[C@H]2[C@@H]1OC[C@@H]2NC(=O)NC(C)(C)C1CCCCC1` [Example 241, 1-(1-Cyclohexyl-1-methyl-ethyl)-3-[(3S,3aR,6S,6aS)-6-(2-methyl-pyridin-3-yloxy)-hexahydro-furo[3,2-b]furan-3-yl]-urea]: 0.117 µM.
As to `Cc1cc(O[C@H]2CO[C@H]3[C@@H]2OC[C@@H]3NC(=O)NC2CCCCC2)cc(C)n1` [Example 67, 1-Cyclohexyl-3-[(3S,3aR,6S,6aS)-6-(2,6-dimethyl-pyridin-4-yloxy)-hexa-hydro-furo[3,2-b]furan-3-yl]-urea], the IC50 came out at 0.001 µM.

(Values after patent publication US9540391B2, “Isomannide derivatives as inhibitors of soluble epoxide hydrolase” (SANOFI, priority 2013, dated 2017).)
